Assay results as given in EP4635944A1, “2-AZABICYCLO[3.1.1]HEPTANE COMPOUND” (Daiichi Sankyo Company, Limited, priority 2022, dated 2024).

Legend:
human OX2R = biological target: T1, human OX2R (Homo sapiens, UniProt O43614); experiment: Evaluation of OX2R agonist activity (intracellular calcium, CHO-K1 cells with forced expression of human OX2R); format: cell-based; conditions: CHO-K1 cells expressing human OX2R; 100% = 5 µM of the reference compound; read-out: hOX2R EC50
T1 construct: host or cells: CHO-K1 (Chinese Hamster Ovary K1)
T1 sequence (O43614 1-444): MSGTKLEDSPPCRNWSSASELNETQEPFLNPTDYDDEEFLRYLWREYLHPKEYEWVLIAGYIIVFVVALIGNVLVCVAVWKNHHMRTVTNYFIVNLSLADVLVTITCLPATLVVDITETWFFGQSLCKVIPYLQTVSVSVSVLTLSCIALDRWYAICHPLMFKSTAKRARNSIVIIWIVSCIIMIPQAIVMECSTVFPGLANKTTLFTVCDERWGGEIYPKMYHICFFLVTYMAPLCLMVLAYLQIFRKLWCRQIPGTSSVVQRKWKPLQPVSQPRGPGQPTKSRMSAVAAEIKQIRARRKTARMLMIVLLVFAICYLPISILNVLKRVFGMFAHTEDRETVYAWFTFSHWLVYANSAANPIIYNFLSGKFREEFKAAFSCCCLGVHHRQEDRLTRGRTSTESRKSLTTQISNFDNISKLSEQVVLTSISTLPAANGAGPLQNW
Outline: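 Cells seeded 7500/well, cultured 24 h, loaded with Fluo 4-AM (2.5 µg/mL final) plus probenecid for 30 min. Calcium response read as 480/540 nm excitation ratio; max–min signal 5–7 s after compound addition, normalized to buffer (0%) and 5 µM reference agonist (100%). EC50 from concentration series; 0.5% DMSO final.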

[1] = Evaluation of ERM production (GSH adduct detection in human liver microsomes); format: in vitro ADME; conditions: test compound 500 µM, human liver microsomes 2 mg/mL, GSH/SI-GSH, 37°C for 60 minutes; negative = no metabolite GSH adduct pair peak
Experimental: Evaluation of ERM production from OX2R agonist
The test compound (final concentration was 500 µM, dissolved in DMSO/acetonitrile = 1/9), pooled human liver microsomes (final concentration was 2 mg/mL), L-glutathione reduced (GSH, final concentration was 0.5 mM), potassium phosphate buffer (pH 7.4, final concentration was 100 mM), and stable isotope labeled GSH (SI-GSH, final concentration was 0.5 mM) were admixed and preincubated at 37°C for 3 minutes. Thereafter, a mixed solution of glucose-6-phosphate (final concentration was 25 mM), β-nicotinamide adenine dinucleotide phosphate (final concentration was 0.25 mM), glucose-6-phosphate dehydrogenase (final concentration was 2 U/mL), and magnesium chloride (final concentration was 10 mM) was added, and incubation was performed at 37°C for 60 minutes. After the incubation, the reaction was stopped by adding a 2-fold volume of acetonitrile. A portion of the supernatant after centrifugation (about 1200 × g, 4°C, 15 minutes) was injected into a liquid chromatograph quadrupole time-of-flight mass spectrometer (Q-Tof) for analysis. The mass number of metabolites, GSH adduct and SI-GSH adduct, predicted from the chemical structural formula of the test compound was calculated, and the presence of the corresponding peaks in the measurement sample was checked. Peaks with the same retention time and approximately equal peak area of the detected peaks of the metabolites, GSH adduct and SI-GSH adduct, were extracted as pair peaks. The presence of a pair peak determined to be a metabolite GSH adduct was considered positive for ERM production potential, whereas the absence of such a peak was considered negative for ERM production potential.

[2] = Evaluation of metabolic stability in human liver microsomes; format: in vitro ADME; conditions: for Human metabolic stability Residual ratio (%): test compound 1 µM, human liver microsomes 0.5 mg/mL, 30 minutes at 37°C; for metabolic stability compared to the corresponding compounds that were not deuterated: human liver microsomes, 30 minutes, deuterated at specific positions
Experimental: Evaluation of metabolic stability of OX2R agonist
The test compound (final concentration was 1 µM, dissolved in DMSO/acetonitrile = 1/99), pooled human liver microsomes (final concentration was 0.5 mg/mL), and sodium phosphate buffer (pH 7.4, final concentration was 100 mM) were admixed and preincubated at 37°C for 15 minutes. Thereafter, a mixed solution of glucose-6-phosphate (final concentration was 10 mM), glucose-6-phosphate dehydrogenase (final concentration was 1 U/mL), and magnesium chloride (final concentration was 3.3 mM) was added and a certain amount of the mixture was collected. Then, an acetonitrile/methanol mixed solution (75/25, v/v) containing a 4.5-fold volume of internal standard substances (final concentrations: phenacetin: 1 ng/mL, niflumic acid: 15 ng/mL, furosemide: 20 ng/mL) was added to stop the reaction (0 min sample). Subsequently, β-nicotinamide adenine dinucleotide phosphate (final concentration was 1 mM) was added, and after 30 minutes of incubation at 37°C, a certain amount of the mixture was collected, to which an acetonitrile/methanol mixed solution (75/25, v/v) containing a 4.5-fold volume of the internal standard substances was added to stop the reaction (30 min sample). For both samples, a portion of the supernatant after centrifugation (about 1200 × g, 4°C, 15 minutes) was injected into a liquid chromatograph tandem quadrupole mass spectrometer (LC-MS/MS) for analysis. The metabolic stability was evaluated by comparing the test compound/internal standard substance ratio of the 30 min sample with the 0 min sample and calculating the residual ratio of the test compound. […]

male C57BL/6J mice = experiment: Acceleration of locomotor activity (arousal effect in mice); format: in vivo; conditions: 10 mg/kg of body weight, orally; cumulative counts for one hour after administration; solvent administration group = 100%
Experimental: Acceleration of locomotor activity
Acceleration of locomotor activity in rodents can be an indicator of arousal. An experiment was carried out on the arousal effect of the test compound in mice, using the acceleration of locomotor activity as the indicator. For the experiment, male C57BL/6J mice (6 weeks old, THE JACKSON LABORATORY JAPAN, INC., 6 to 8 animals per group) were used. Mice were allowed to acclimate for 1 hour or longer in the rearing cage in the room where the measurement was to be performed, until the experiment. After the acclimation, the mice were placed in a locomotor activity measuring apparatus (the behavior analyzer SCANET-40 series, Melquest Ltd.) equipped with an infrared sensor to start the measurement. After 2 hours, either the solvent or the test compound (10 mg/kg of body weight) was orally administered, and the mice were immediately returned to the measuring apparatus and the measurement was further performed for 2 hours. The test compound was suspended in the 0.5 w/v% methylcellulose 400 solution (Wako Pure Chemical Industries, Ltd., Japan). The locomotor activity was counted every 5 minutes, and the cumulative counts for one hour after administration were calculated for each treatment group. The proportion of the locomotor activity of the test compound administration group to the solvent administration group whose locomotor activity was defined as 100% was calculated and shown in Table 2.

Row | Structure (SMILES) | EC50 (human OX2R) [nM] | ERM production potential [1] | Human metabolic stability Residual ratio (%) [2] [%] | metabolic stability compared to the corresponding compounds that were not deuterated [2] | Locomotor activity (%) (male C57BL/6J mice)
1 | C[C@@H](O)C(=O)N1C2CC(C2)[C@H](NS(C)(=O)=O)[C@@H]1Cc1cc(F)cc(-c2ccccc2)c1F [Example 58, N-{(3S,4S)-3-[(2,5-Difluoro[biphenyl]-3-yl)methyl]-2-[(2R)-2-hydroxypropanoyl]-2-azabicyclo[3.1.1]heptan-4-yl}methanesulfonamide] | 38 | negative | 34 |  | 
2 | [2H]C([2H])([2H])[C@@]([2H])(O)C(=O)N1C2CC(C2)[C@H](NS(C)(=O)=O)[C@@H]1Cc1cc(F)cc(-c2ccccc2)c1F [Example 88, N-{(3S,4S)-3-[(2,5-Difluoro[biphenyl]-3-yl)methyl]-2-[(2R)-2-hydroxy(^2H4)propanoyl]-2-azabicyclo[3.1.1]heptan-4-yl}methanesulfonamide] | 43 | negative | 59 | improved metabolic stability | 
3 | [2H][C@](C)(O)C(=O)N1C2CC(C2)[C@H](NS(C)(=O)=O)[C@@H]1Cc1cc(F)cc(-c2ccccc2)c1F [Example 98, N-{(3S,4S)-3-[(2,5-Difluoro[biphenyl]-3-yl)methyl]-2-[(2R)-2-hydroxy(2-^2H)propanoyl]-2-azabicyclo[3.1.1]heptan-4-yl}methanesulfonamide] | 36 | negative | 58 | improved metabolic stability | 281
4 | [2H]C([2H])([2H])[C@@]([2H])(O)C(=O)N1C2CC(F)(C2)[C@H](NS(C)(=O)=O)[C@@H]1Cc1cccc(-c2ccccc2)c1F [Example 89, N-{(3S,4R)-5-Fluoro-3-[(2-fluoro[biphenyl]-3-yl)methyl]-2-[(2R)-2-hydroxy(^2H4)propanoyl]-2-azabicyclo[3.1.1]heptan-4-yl}methanesulfonamide] | 18 |  | 75 | improved metabolic stability | 412
5 | [2H][C@](C)(O)C(=O)N1C2CC(C2)[C@H](NS(C)(=O)=O)[C@@H]1Cc1cccc(-c2ccccc2)c1F [Example 97, N-{(3S,4S)-3-[(2-Fluoro[biphenyl]-3-yl)methyl]-2-[(2R)-2-hydroxy(2-^2H)propanoyl]-2-azabicyclo[3.1.1]heptan-4-yl}methanesulfonamide] | 21 | negative | 57 | improved metabolic stability | 601
6 | [2H]C([2H])([2H])[C@@]([2H])(O)C(=O)N1C2CC(C2)[C@H](NS(C)(=O)=O)[C@@H]1Cc1cccc(-c2ccccc2)c1F [Example 76, N-{(3S,4S)-3-[(2-Fluoro[biphenyl]-3-yl)methyl]-2-[(2R)-2-hydroxy(^2H4)propanoyl]-2-azabicyclo[3.1.1]heptan-4-yl}methanesulfonamide] | 18 | negative | 59 | improved metabolic stability | 
7 | CC(C)(O)C(=O)N1C2CC(F)(C2)[C@H](NS(C)(=O)=O)[C@@H]1Cc1cc(F)cc(-c2cccc(Cl)c2)c1F [Example 77, N-[(3S,4R)-3-[(3'-Chloro-2,5-difluoro[biphenyl]-3-yl)methyl]-5-fluoro-2-(2-hydroxy-2-methylpropanoyl)-2-azabicyclo[3.1.1]heptan-4-yl]methanesulfonamide] | 46 | negative |  |  | 
8 | [2H]C([2H])([2H])[C@@]([2H])(O)C(=O)N1C2CC(F)(C2)[C@H](NS(C)(=O)=O)[C@@H]1Cc1cc(F)cc(-c2ccccc2)c1F [Example 87, N-{(3S,4R)-3-[(2,5-Difluoro[biphenyl]-3-yl)methyl]-5-fluoro-2-[(2R)-2-hydroxy(^2H4)propanoyl]-2-azabicyclo[3.1.1]heptan-4-yl}methanesulfonamide] | 30 |  | 70 | improved metabolic stability | 221
9 | CC(C)(O)C(=O)N1C2CC(F)(C2)[C@H](NS(C)(=O)=O)[C@@H]1Cc1cc(F)cc(-c2ccccc2)c1F [Example 74, N-[(3S,4R)-3-[(2,5-Difluoro[biphenyl]-3-yl)methyl]-5-fluoro-2-(2-hydroxy-2-methylpropanoyl)-2-azabicyclo[3.1.1]heptan-4-yl]methanesulfonamide] | 72 | negative |  |  | 
